Results on six molecules are retold here after patent US11981658B2, “Substituted aminopyridine compounds as EGFR inhibitors” (YUHAN CORPORATION, priority 2021, dated 2024).

Where two headings read alike, the source gives them in different places.

The target in assay [1] is EGFR L858R/T790M/C797S (Homo sapiens, UniProt P00533, C797S/L858R/T790M). As to the kind of experiment: Biochemical EGFR kinase inhibition assay (Lance Ultra TR-FRET), triple mutant L858R/T790M/C797S. In short, it runs like this:
(§1)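 Kinase activity is measured by TR-FRET phosphopeptide detection. Compounds span 0.003 μM to 10 μM; the 1 h reaction at room temperature is quenched with EDTA, then labelled antibody (2 nM) is incubated 60 min before reading.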
In general terms: TR-FRET usually uses a lanthanide donor and a delayed reading to cut background.

Assay [2] concerns the target EGFR L858R/C797S (Homo sapiens, UniProt P00533, C797S/L858R). Briefly: Biochemical EGFR kinase inhibition assay (Lance Ultra TR-FRET), double mutant L858R/C797S. In short, it runs like this: as §1
In assay [3] the target is EGFR Del19/T790M/C797S (Homo sapiens, UniProt P00533, C797S/DEL746-750/T790M). Briefly: Biochemical EGFR kinase inhibition assay (Lance Ultra TR-FRET), triple mutant del19/T790M/C797S. In short, it runs like this:
as §1

Assay [4] concerns the target EGFR wildtype (WT) (Homo sapiens, UniProt P00533). As to the kind of experiment: Biochemical EGFR kinase inhibition assay (Lance Ultra TR-FRET), wildtype. In short, it runs like this:
as §1

Assay [5] has as its target EGFR Del19/C797S (Homo sapiens, UniProt P00533, C797S/DEL746-750). As to the kind of experiment: Biochemical EGFR kinase inhibition assay (Lance Ultra TR-FRET), double mutant del19/C797S. In short, it runs like this:
as §1

The mark [6] stands for this setting: IC50 L858R/T790M/C797S (nM), 100 μM ATP.
The mark [7] stands for this setting: Km ATP, read-out: IC50 L858R/T790M/C797S (nM) Km ATP.
Setting [8] is: IC50 L858R/C797S (nM), 100 μM ATP.
Setting [9] is: Km ATP, read-out: IC50 L858R/C797S (nM) Km ATP.
Where [10] appears, read: IC50 Del19/T790M/C797S (nM), 100 μM ATP.
[11] abbreviates: Km ATP, read-out: IC50 Del19/T790M/C797S (nM) Km ATP.
Setting [12] is: Km ATP, read-out: IC50 WT (nM) Km ATP.
The mark [13] stands for this setting: IC50 Del19/C797S (nM), 100 μM ATP.
Setting [14] is: Km ATP, read-out: IC50 Del19/C797S (nM) Km ATP.

Chain of EGFR L858R/C797S (P00533 25-1210 C797S/L858R): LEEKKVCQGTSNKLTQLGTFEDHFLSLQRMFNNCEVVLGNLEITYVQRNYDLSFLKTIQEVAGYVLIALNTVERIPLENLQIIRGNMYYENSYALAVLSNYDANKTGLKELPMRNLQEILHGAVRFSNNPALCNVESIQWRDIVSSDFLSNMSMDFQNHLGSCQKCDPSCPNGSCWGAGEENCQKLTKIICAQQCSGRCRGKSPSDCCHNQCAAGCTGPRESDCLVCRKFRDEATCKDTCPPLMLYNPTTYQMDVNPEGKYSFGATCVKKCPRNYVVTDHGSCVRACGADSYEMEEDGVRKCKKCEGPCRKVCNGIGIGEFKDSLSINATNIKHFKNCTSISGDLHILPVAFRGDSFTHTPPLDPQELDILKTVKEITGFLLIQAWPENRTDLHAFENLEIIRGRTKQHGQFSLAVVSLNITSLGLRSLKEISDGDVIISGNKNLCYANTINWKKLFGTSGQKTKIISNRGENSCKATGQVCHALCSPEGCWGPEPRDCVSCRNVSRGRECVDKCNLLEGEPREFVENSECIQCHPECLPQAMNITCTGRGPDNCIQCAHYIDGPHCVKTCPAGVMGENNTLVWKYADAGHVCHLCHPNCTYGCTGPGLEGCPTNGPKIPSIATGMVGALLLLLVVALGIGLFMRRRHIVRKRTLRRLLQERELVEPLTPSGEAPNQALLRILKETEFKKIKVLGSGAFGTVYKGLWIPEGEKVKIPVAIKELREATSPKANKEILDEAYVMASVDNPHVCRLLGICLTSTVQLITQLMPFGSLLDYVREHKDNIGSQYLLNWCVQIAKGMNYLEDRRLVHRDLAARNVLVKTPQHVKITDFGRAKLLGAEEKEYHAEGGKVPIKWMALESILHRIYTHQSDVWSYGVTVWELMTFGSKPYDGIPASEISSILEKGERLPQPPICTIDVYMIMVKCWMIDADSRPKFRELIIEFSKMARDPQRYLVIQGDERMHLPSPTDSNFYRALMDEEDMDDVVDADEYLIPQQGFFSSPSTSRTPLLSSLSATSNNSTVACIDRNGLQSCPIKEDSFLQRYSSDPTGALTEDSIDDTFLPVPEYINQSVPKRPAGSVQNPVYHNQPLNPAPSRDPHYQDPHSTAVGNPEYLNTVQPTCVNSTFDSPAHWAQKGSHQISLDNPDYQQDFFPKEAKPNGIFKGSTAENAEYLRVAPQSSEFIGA
Chain of EGFR Del19/C797S (P00533 with tags, fused parts or gaps DEL746-750/C797S): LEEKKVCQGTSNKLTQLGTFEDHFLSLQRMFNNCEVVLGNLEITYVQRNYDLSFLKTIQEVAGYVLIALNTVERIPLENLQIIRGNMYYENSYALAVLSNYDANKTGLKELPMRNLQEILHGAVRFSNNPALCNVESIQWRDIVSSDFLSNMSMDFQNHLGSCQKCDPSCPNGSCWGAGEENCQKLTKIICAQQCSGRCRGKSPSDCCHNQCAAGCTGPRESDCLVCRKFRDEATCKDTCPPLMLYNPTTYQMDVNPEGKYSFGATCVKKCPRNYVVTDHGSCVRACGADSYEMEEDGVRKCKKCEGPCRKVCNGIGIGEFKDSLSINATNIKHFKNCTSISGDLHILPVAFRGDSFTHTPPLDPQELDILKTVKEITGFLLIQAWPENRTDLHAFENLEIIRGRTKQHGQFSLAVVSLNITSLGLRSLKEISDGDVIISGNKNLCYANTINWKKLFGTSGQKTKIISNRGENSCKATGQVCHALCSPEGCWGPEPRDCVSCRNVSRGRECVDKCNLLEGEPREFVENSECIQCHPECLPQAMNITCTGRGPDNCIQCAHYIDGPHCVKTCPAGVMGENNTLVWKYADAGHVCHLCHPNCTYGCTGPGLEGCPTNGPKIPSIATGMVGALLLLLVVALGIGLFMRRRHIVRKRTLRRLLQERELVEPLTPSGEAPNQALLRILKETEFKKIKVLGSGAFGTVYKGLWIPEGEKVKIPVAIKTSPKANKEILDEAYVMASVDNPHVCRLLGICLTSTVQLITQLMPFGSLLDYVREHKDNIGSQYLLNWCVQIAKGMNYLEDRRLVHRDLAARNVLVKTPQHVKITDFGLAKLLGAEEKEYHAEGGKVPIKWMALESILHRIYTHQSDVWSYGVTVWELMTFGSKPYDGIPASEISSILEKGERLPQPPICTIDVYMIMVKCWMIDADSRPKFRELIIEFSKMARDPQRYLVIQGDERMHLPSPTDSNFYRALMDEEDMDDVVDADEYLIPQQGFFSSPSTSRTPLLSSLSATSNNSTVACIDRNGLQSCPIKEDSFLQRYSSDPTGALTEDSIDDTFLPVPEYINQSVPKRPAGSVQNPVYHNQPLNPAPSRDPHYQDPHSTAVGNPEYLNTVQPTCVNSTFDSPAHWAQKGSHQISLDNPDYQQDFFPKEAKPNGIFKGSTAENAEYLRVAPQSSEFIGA
Chain of EGFR L858R/T790M/C797S (P00533 25-1210 T790M/C797S/L858R): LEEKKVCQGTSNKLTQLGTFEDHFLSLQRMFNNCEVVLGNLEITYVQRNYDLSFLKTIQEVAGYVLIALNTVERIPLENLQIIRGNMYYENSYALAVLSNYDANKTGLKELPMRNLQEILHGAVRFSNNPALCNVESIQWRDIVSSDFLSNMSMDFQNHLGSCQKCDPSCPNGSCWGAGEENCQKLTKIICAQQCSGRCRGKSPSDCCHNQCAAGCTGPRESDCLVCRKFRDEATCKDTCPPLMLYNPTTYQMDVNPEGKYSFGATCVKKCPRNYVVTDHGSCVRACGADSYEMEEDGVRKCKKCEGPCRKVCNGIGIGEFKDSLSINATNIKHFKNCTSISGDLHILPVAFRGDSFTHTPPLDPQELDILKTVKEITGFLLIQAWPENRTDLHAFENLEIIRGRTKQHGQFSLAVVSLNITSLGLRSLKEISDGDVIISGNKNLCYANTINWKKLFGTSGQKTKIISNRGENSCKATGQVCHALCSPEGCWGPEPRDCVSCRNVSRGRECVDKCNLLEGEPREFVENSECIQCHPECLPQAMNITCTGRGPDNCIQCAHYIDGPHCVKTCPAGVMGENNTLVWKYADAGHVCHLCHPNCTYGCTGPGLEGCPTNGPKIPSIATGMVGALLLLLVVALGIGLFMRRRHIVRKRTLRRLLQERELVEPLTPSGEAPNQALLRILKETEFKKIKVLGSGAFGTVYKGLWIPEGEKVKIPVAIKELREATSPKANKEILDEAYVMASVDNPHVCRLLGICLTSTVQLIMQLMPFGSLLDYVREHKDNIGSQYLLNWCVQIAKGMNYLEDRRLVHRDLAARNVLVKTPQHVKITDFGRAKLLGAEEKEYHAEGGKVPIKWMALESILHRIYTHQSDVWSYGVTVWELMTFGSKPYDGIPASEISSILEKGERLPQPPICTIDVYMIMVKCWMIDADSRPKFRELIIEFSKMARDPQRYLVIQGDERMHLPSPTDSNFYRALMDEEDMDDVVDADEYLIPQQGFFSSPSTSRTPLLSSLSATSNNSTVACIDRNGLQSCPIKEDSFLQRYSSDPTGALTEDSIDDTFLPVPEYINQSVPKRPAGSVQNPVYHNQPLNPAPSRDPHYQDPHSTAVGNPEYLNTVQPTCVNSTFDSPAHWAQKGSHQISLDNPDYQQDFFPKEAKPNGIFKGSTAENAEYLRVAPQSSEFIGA
Chain of EGFR Del19/T790M/C797S (P00533 with tags, fused parts or gaps DEL746-750/T790M/C797S): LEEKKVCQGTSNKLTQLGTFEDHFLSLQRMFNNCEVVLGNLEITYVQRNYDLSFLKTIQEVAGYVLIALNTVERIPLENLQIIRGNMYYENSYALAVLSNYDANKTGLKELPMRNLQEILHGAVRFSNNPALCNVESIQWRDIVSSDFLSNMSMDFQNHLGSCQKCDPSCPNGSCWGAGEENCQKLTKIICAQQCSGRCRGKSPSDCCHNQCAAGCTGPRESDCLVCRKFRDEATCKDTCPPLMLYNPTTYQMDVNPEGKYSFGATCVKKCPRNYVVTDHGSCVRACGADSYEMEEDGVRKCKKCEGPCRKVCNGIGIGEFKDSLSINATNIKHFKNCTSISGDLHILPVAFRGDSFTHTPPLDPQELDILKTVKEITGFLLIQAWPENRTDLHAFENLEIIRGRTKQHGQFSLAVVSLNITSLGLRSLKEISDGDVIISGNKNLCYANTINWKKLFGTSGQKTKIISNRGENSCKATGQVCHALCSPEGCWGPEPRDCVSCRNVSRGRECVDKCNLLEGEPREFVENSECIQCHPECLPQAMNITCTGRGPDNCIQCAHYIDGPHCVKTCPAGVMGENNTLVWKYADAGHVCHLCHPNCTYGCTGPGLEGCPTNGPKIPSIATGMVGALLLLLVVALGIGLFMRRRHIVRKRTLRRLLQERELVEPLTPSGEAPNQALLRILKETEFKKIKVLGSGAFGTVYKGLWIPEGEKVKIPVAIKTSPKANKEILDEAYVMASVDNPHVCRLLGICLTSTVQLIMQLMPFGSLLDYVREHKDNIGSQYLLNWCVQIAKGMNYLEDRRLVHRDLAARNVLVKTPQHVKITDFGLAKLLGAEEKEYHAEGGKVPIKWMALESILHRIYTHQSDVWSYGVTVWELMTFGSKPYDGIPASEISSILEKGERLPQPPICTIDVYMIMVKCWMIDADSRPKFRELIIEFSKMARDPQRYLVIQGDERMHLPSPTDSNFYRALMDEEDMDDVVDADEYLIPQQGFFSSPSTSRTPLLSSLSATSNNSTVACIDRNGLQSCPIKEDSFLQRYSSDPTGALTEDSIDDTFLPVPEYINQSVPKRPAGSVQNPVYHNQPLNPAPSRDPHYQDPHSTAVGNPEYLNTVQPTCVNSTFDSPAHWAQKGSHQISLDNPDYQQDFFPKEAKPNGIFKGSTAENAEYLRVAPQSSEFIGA

For the molecule `CC(=O)N1CCC(n2cc(C#Cc3cnc(Nc4ccnc(-c5cnn(S(=O)(=O)C6CC6)c5)n4)cc3N3CCCC(CO)C3)cn2)CC1` (stereo not shown) [Example 115, 1-(4-(4-((6-((2-(1-(Cyclopropylsulfonyl)-1H-pyrazol-4-yl)pyrimidin-4-yl)amino)-4-(3-(hydroxymethyl)piperidin-1-yl)pyridin-3-yl)ethynyl)-1H-pyrazol-1-yl)piperidin-1-yl)ethan-1-one], the IC50 in assay [1] (setting [6]) turned out to be 2.3 nM; in assay [1] (setting [7]), 0.9 nM; in assay [2] (setting [8]), 15.6 nM; in assay [2] (setting [9]), 2.9 nM; in assay [3] (setting [10]) it was 1.2 nM; in assay [3] (setting [11]), 0.9 nM. Moreover, the IC50 in assay [4] (IC50 WT (nM), 100 μM ATP) was over 10000 nM; in assay [4] (setting [12]) it was 19.6 nM; in assay [5] (setting [13]), 8.1 nM; in assay [5] (setting [14]), 5.4 nM.
Consider `CN(C)C[C@H]1CC[C@H](COc2cc(Nc3ccnc(-c4cnn(S(=O)(=O)C5CC5)c4)n3)ncc2C#Cc2cnn(C)c2)CC1` [Example 58, 2-(1-(Cyclopropylsulfonyl)-1H-pyrazol-4-yl)-N-(4-(((1r,4r)-4-((dimethylamino)methyl)cyclohexyl)methoxy)-5-((1-methyl-1H-pyrazol-4-yl)ethynyl)pyridin-2-yl)pyrimidin-4-amine], for which the IC50 in assay [1] (setting [6]) turned out to be 0.5 nM; in assay [1] (setting [7]), 0.1 nM; in assay [2] (setting [8]), 24.7 nM; in assay [2] (setting [9]) it was 4.7 nM; in assay [3] (setting [10]), 1.1 nM; in assay [3] (setting [11]), 0.3 nM. In addition, the IC50 is over 10000 nM in assay [4] (IC50 WT (nM), 100 μM ATP); 15.1 nM in assay [4] (setting [12]); 2.8 nM in assay [5] (setting [13]); 0.6 nM in assay [5] (setting [14]).
In the case of `Cn1cc(C#Cc2cnc(Nc3ccnc(-c4cnn(S(=O)(=O)C5CC5)c4)n3)cc2N2CCC(F)(CO)CC2)cn1` [Example 73, (1-(2-((2-(1-(Cyclopropylsulfonyl)-1H-pyrazol-4-yl)pyrimidin-4-yl)amino)-5-((1-methyl-1H-pyrazol-4-yl)ethynyl)pyridin-4-yl)-4-fluoropiperidin-4-yl)methanol], the IC50 turned out to be 1.2 nM in assay [1] (setting [6]); 6.6 nM in assay [2] (setting [8]); 0.4 nM in assay [3] (setting [10]); 7550 nM in assay [4] (IC50 WT (nM), 100 μM ATP); 2.8 nM in assay [5] (setting [13]).
Consider `CC1(CO)CCN(c2cc(Nc3ccnc(-c4cnn(S(=O)(=O)C5CC5)c4)n3)ncc2C#CCCN2CCOCC2)CC1` [Example 285, (1-(2-((2-(1-(Cyclopropylsulfonyl)-1H-pyrazol-4-yl)pyrimidin-4-yl)amino)-5-(4-morpholinobut-1-yn-1-yl)pyridin-4-yl)-4-methylpiperidin-4-yl)methanol], for which the IC50 worked out at 0.4 nM in assay [1] (ATP at Km, read-out: IC50 L858R/T790M/C797S (nM), Km ATP); 0.6 nM in assay [1] (setting [6]); 0.1 nM in assay [2] (ATP at Km, read-out: IC50 L858R/C797S (nM), Km ATP); 1.3 nM in assay [2] (setting [8]); 0.8 nM in assay [3] (ATP at Km, read-out: IC50 Del19/T790M/C797S (nM), Km ATP); 1 nM in assay [3] (setting [10]). Besides, the IC50 in assay [4] (ATP at Km, read-out: IC50 WT (nM), Km ATP) was 2.5 nM; in assay [4] (IC50 WT (nM), 100 μM ATP), 1250 nM; in assay [5] (ATP at Km, read-out: IC50 Del19/C797S (nM), Km ATP) it was 0.4 nM; in assay [5] (setting [13]), 1.1 nM.
As to `Cn1ccc(C#Cc2cnc(Nc3ccnc(-c4cnn(S(=O)(=O)C5CC5)c4)n3)cc2N[C@H]2CC[C@@H](O)CC2)n1` [Example 106, (1s,4s)-4-((2-((2-(1-(Cyclopropylsulfonyl)-1H-pyrazol-4-yl)pyrimidin-4-yl)amino)-5-((1-methyl-1H-pyrazol-3-yl)ethynyl)pyridin-4-yl)amino)cyclohexan-1-ol], the IC50 in assay [1] (setting [6]) was found to be 1.6 nM; in assay [1] (setting [7]) it was 0.6 nM; in assay [2] (setting [8]), 274 nM; in assay [2] (setting [9]), 6.1 nM; in assay [3] (setting [10]), 1.1 nM; in assay [3] (setting [11]) it was 1 nM. Also, the IC50 in assay [4] (IC50 WT (nM), 100 μM ATP) was over 10000 nM; in assay [4] (setting [12]), 95.5 nM; in assay [5] (setting [13]), 15.1 nM; in assay [5] (setting [14]), 12.5 nM.
For `CC(=O)N1CCC(n2cc(C#Cc3cnc(Nc4ccnc(-c5cnn(S(=O)(=O)C6CC6)c5)n4)cc3N3CCC(C)(CO)CC3)cn2)CC1` [Example 110, 1-(4-(4-((6-((2-(1-(Cyclopropylsulfonyl)-1H-pyrazol-4-yl)pyrimidin-4-yl)amino)-4-(4-(hydroxymethyl)-4-methylpiperidin-1-yl)pyridin-3-yl)ethynyl)-1H-pyrazol-1-yl)piperidin-1-yl)ethan-1-one], the IC50 in assay [1] (setting [6]) is 1.3 nM; in assay [1] (setting [7]) it was 0.6 nM; in assay [2] (setting [8]), 2.7 nM; in assay [2] (setting [9]) it was 0.8 nM; in assay [3] (setting [10]), 1.2 nM; in assay [3] (setting [11]), 1.1 nM. Besides, the IC50 stood at 296 nM in assay [4] (IC50 WT (nM), 100 μM ATP); 2.8 nM in assay [4] (setting [12]); 1.7 nM in assay [5] (setting [13]); 1.8 nM in assay [5] (setting [14]).
